Activity calls are given as the source filed them. The calls are words filed in the database; no cut-off is given here.
What was measured:
[1] = system: Plasmodium falciparum; assay: Antimalarial activity against Plasmodium falciparum D6 assessed as inhibition of [3H]hypoxanthine uptake organism selected on 50 ng/ml compound concentration; format: functional, organism-based
[2] = system: Plasmodium falciparum; assay: Antimalarial activity against Plasmodium falciparum W2 assessed as inhibition of [3H]hypoxanthine uptake organism selected on 50 ng/mL compound concentration; format: functional, organism-based
[3] = system: Plasmodium falciparum; assay: Antimalarial activity against Plasmodium falciparum W2 assessed as inhibition of [3H]hypoxanthine uptake; format: functional, organism-based
[4] = system: Plasmodium falciparum; assay: Antimalarial activity against Plasmodium falciparum W2 assessed as level of pfmdr1 mRNA expression organism selected on 80 ng/ml of compound by quantitative real-time RT-PCR with respect to wild type; format: functional
[5] = system: Plasmodium falciparum; assay: Antimalarial activity against Plasmodium falciparum W2 harboring 1 copy number of pfmdr1 gene organism selected at 10 to 30 ng/ml compound concentration; format: functional, organism-based
[6] = system: Plasmodium falciparum; assay: Antimalarial activity against Plasmodium falciparum TM91C235 assessed as inhibition of [3H]hypoxanthine uptake; format: functional, organism-based
[7] = system: Plasmodium falciparum; assay: Antimalarial activity against Plasmodium falciparum W2 organism selected on 40 ng/ml compound concentration; format: functional, organism-based
[8] = system: Plasmodium falciparum; assay: Antimalarial activity against Plasmodium falciparum TM91C235 selected on 30 ng/ml compound concentration; format: functional, organism-based
[9] = system: Plasmodium falciparum; assay: Antimalarial activity against Plasmodium falciparum TM91C235 assessed as level of pfmdr1 mRNA expression organism selected on 80 ng/ml of compound by quantitative real-time RT-PCR with respect to wild type; format: functional
[10] = system: Plasmodium falciparum; assay: Antimalarial activity against Plasmodium falciparum TM91C235 assessed as inhibition of [3H]hypoxanthine uptake organism selected on 80 ng/mL compound concentration; format: functional, organism-based
[11] = system: Plasmodium falciparum; assay: Antimalarial activity against Plasmodium falciparum W2 harboring 3 copy number of pfmdr1 gene organism selected at 50 ng/ml compound concentration; format: functional, organism-based
[12] = system: Plasmodium falciparum; assay: Antimalarial activity against Plasmodium falciparum W2 assessed as inhibition of [3H]hypoxanthine uptake organism selected on 80 ng/mL compound concentration; format: functional, organism-based
[13] = system: Plasmodium falciparum; assay: Antimalarial activity against Plasmodium falciparum D6 harboring 1 copy number of pfmdr1 gene organism selected at up to 80 ng/ml compound concentration; format: functional, organism-based
[14] = system: Plasmodium falciparum; assay: Antimalarial activity against Plasmodium falciparum W2 organism selected on up to 80 ng/ml compound concentration; format: functional, organism-based
[15] = system: Plasmodium falciparum; assay: Antimalarial activity against Plasmodium falciparum D6 organism selected on 30 ng/ml compound concentration; format: functional, organism-based
[16] = system: Plasmodium falciparum; assay: Antimalarial activity against Plasmodium falciparum D6 assessed as inhibition of [3H]hypoxanthine uptake; format: functional, organism-based
[17] = system: Plasmodium falciparum; assay: Antimalarial activity against Plasmodium falciparum D6 assessed as inhibition of [3H]hypoxanthine uptake organism selected on 80 ng/ml compound concentration; format: functional, organism-based
[18] = system: Plasmodium falciparum; assay: Antimalarial activity against Plasmodium falciparum W2 harboring 3 copy number of pfmdr1 gene organism selected at 120 ng/ml compound concentration; format: functional, organism-based
[19] = system: Plasmodium falciparum; assay: Antimalarial activity against Plasmodium falciparum TM91C235 harboring 3 copy number of pfmdr1 gene organism selected at 80 ng/ml compound concentration; format: functional, organism-based
[20] = system: Plasmodium falciparum; assay: Antimalarial activity against Plasmodium falciparum TM91C235 harboring 2 copy number of pfmdr1 gene organism selected at 10 to 50 ng/ml compound concentration; format: functional, organism-based
[21] = system: Plasmodium falciparum; assay: Antimalarial activity against Plasmodium falciparum D6 assessed as level of pfmdr1 mRNA expression organism selected on 80 ng/ml of compound by quantitative real-time RT-PCR with respect to wild type; format: functional, organism-based
[22] = system: Plasmodium falciparum; assay: Antimalarial activity against Plasmodium falciparum TM91C235 assessed as inhibition of [3H]hypoxanthine uptake organism selected on 50 ng/mL compound concentration; format: functional, organism-based
[23] = system: Plasmodium falciparum; assay: Antimalarial activity against Plasmodium falciparum W2 harboring 3 copy number of pfmdr1 gene organism selected at 80 ng/ml compound concentration; format: functional, organism-based
[24] = system: Plasmodium falciparum; assay: Antimalarial activity against Plasmodium falciparum W2 assessed as level of pfmdr1 mRNA expression organism selected on 40 ng/ml of compound by quantitative real-time RT-PCR with respect to wild type; format: functional
[25] = system: Plasmodium falciparum; assay: Antimalarial activity against Plasmodium falciparum W2 harboring 2 copy number of pfmdr1 gene organism selected at 40 ng/ml compound concentration; format: functional, organism-based
[26] = system: Plasmodium falciparum; assay: Antimalarial activity against Plasmodium falciparum W2 harboring 2 copy number of pfmdr1 gene organism selected at 200 ng/ml compound concentration; format: functional, organism-based

## C[C@@H]1[C@H](OCc2ccc(C(=O)O)cc2)O[C@@H]2O[C@@]3(C)CC[C@@H]4[C@@H](C)CC[C@@H]1[C@]24OO3 [ARTELINIC ACID]
[1]
  IC50: 34 nM
  IC90: 81.3 nM
[2]
  IC50: 23.3 nM
  IC90: 51.3 nM
[3]
  IC50: 4.37 nM
  IC90: 7.45 nM
[4]
  fold change (FC): 3
[5]
  Activity: Active
[6]
  IC50: 11.1 nM
  IC90: 23 nM
[7]
  Activity: inactive
[8]
  Activity: inactive
[9]
  fold change (FC): 2.1
[10]
  IC50: 24.6 nM
  IC90: 75.9 nM
[11]
  Activity: inactive
[12]
  IC50: 22.8 nM
  IC90: 56.8 nM
[13]
  Activity: inactive
[14]
  Activity: inactive
[15]
  Activity: inactive
[16]
  IC90: 21.8 nM
[17]
  IC50: 23.6 nM
  IC90: 75.9 nM
[18]
  Activity: Active
[19]
  Activity: Active
[20]
  Activity: inactive
[21]
  Activity: Active
[22]
  IC50: 33.7 nM
  IC90: 53.5 nM
[23]
  Activity: inactive

## C[C@@H]1CC[C@H]2[C@@H](C)C(=O)O[C@@H]3O[C@@]4(C)CC[C@@H]1[C@]32OO4 [ARTEMISININ]
[24]
  fold change (FC): 2.2
[25]
  Activity: inactive
[26]
  Activity: inactive

— ChEMBL document CHEMBL1275588, “Role of pfmdr1 amplification and expression in induction of resistance to artemisinin derivatives in Plasmodium falciparum” (Antimicrob Agents Chemother, 2010)
